# Assay results as given in article PMC2397535 (Breast Cancer Research : BCR, 2008).
# Where two headings read alike, the source gives them in different places.
# Assays:
# SkBr3 = assay: antiproliferative effect (GI50), breast cancer cell line; type: cell-based; details: Homo sapiens, SK-BR-3
# MDA-MB-468 = assay: as above; type: cell-based; details: Homo sapiens
# BT-474 = assay: as above; type: cell-based; details: Homo sapiens
# MAXF 1322 = assay: clonogenic (soft agar colony formation) assay, primary breast tumor; type: cell-based, human
# HSP70 = HSP70 induction in BT-474 xenografts (immunohistochemistry); type: in vivo, mice; details: single 50 mg/kg dose
# Experimental: Formalin-fixed paraffin-embedded tissue sections were stained using the Ventana Discovery System (Ventana Medical Systems, Inc., Tucson, AZ, USA). Deparaffinization of tissue sections and heat-induced epitope retrieval using Standard Cell Conditioning Solution 1 (Ventana Medical Systems, Inc.) were performed directly on the System. A rabbit anti-human ERBB2 (HER2) monoclonal antibody (Lab Vision Corporation, Fremont, CA, USA) and a mouse anti-human HSP70 (Assay Designs, Inc.) were prepared in Dako diluent (Dako North America, Inc., Carpinteria, CA, USA) and used at concentrations of 2 ug/mL for 32 minutes and 10 ug/mL for 60 minutes, respectively. For HSP70 staining, slides were incubated with a biotin-labeled anti-mouse IgG1 (Research Diagnostics, Inc., now known as Fitzgerald Industries International, Concord, MA, USA) at a concentration of 1.25 ug/mL diluted in M.O.M. (Mouse-on-Mouse) (Vector Laboratories, Peterborough, UK). Detection using a 3,3'-diaminobenzadine reaction was performed on the section by using the Ventana OmniMAP DAB for the ERBB2 antibody and the Ventana DAB Map reagent for the HSP70 antibody (Ventana Medical Systems, Inc.). Each tissue section was subsequently counterstained with hematoxylin. To ensure antibody specificity, consecutive tissue sections were incubated with normal isotype-matched immunoglobulins (rabbit IgG; Jackson ImmunoResearch Laboratories, Inc., West Grove, PA, USA, and mouse IgG1; Lab Vision Corporation) used at concentrations equivalent to Her2 and HSP70 antibodies. Stained tissue sections were quantified using the Aperio Digital Pathology System (Aperio Technologies, Inc., Vista, CA, USA).
# Invasive procedures were performed under Forene anesthesia. […] The animals were fed food and water ad libitum.
# [1] = test system: ERBB2, AKT, phospho-AKT in BT-474 cells; assay: client protein levels in BT-474 cells (Western blot); type: cell-based, human
# Experimental: To assess total levels of AKT, phosphorylated AKT, β-tubulin, and ERBB2 in the cell extracts, 20 to 30 μg of total protein was resolved by the appropriate-percentage SDS-PAGE. The following antibodies were used for immunoblotting: anti-AKT (cat. no. 9272, rabbit polyclonal; Cell Signaling Technology, Inc.), anti-phospho-AKT (Ser473) (cat. no. 9271, rabbit polyclonal; Cell Signaling Technology, Inc.), anti-β-tubulin (cat. no. T 4026, mouse monoclonal, clone Tub2.1; Sigma-Aldrich, St. Louis, MO, USA), and anti-ERBB2 (cat. no. 28-0004, rabbit polyclonal; Zymed Laboratories Inc., now part of Invitrogen Corporation, Carlsbad, CA, USA). Bound antibodies on PVDF immunoblots were detected by Amersham ECL (Amersham, now part of GE Healthcare, Little Chalfont, Buckinghamshire, UK) or infrared fluorescence detection (LI-COR Biosciences, Lincoln, NE, USA).
# [2] = pharmacokinetics and biodistribution in BT-474 tumor-bearing mice (HPLC/MS-MS); type: in vivo; details: for Kp: intravenous; for Kp / half-life: 30 mg/kg
# Experimental: At various time points, mice (n = 4) were sacrificed and blood and tissues (tumor, liver, lung, heart, and muscles) were dissected. […] Frozen tissues were minced, then homogenized in an equal volume of ice-cold phosphate-buffered saline (Sigma P4417; Sigma-Aldrich) using a Polytron homogenizer (TP18-10; IKA, Staufen, Germany) and keeping the material cold during the homogenization. After the addition of 50 μL of internal standard (1 μg/mL) to analytical aliquots (25 to 250 μL) of plasma or tissue homogenate, the proteins were precipitated by the addition of an equal volume of acetonitrile and processed further for chromatographic separation. […] An aliquot (5 μL) of this solution was separated on a […] Ultra Cyano reverse-phase HPLC column (column size 50 × 1 mm, particle size 3 μm, preceded by a guard column: PhenomenexTM AJO-4304 Phenylpropyl, size 4 × 2 mm (Phenomenex, Torrance, CA, USA)) with a mobile phase consisting of a mixture of 0.2% formic acid in water (solvent A) and 0.2% formic acid in acetonitrile (solvent B). The column eluent was introduced directly into the ion source of the triple-quadrupole mass spectrometer Quattro UltimaTM (Micromass Limited, now part of Waters Corporation, Milford, MA, USA) controlled by MasslynxTM 4.0 software. Positive electrospray ionization multiple-reaction monitoring was used for the MS/MS detection of the analyte. Precursors to product ion transitions of m/z 466.[…]/z 308.20 for NVP-AUY922-NX and m/z 480.[…]/z 308.15 for IS VER814 were used. […] Regression analysis and further calculations were performed using QuanLynxTM 4.0 (Waters Corporation, Milford, MA, USA) and ExcelTM 2002 (Microsoft Corporation, Redmond, WA, USA). Concentrations of unknown samples were calculated from the peak area ratio of the product ion of the analytes to the product ion of its internal standard (ordinate) against the nominal concentration (abscissa). Assay linearity was indicated by an overall regression coefficient of 0.9975.
# MDA-MB-157 = assay: antiproliferative effect (GI50), breast cancer cell line; type: cell-based; details: Homo sapiens
# BT20 = assay: as above; type: cell-based; details: Homo sapiens, BT-20
# MAXF 1384 = assay: clonogenic (soft agar colony formation) assay, primary breast tumor; type: cell-based, human
# [3] = 48 hours after compound administration
smiles,measurement,setting,value
CCNC(=O)c1noc(-c2cc(C(C)C)c(O)cc2O)c1-c1ccc(CN2CCOCC2)cc1 [NVP-AUY922],GI50,SkBr3,3.3 ± 0.9 nM
same,GI50,MDA-MB-468,6.3 ± 2.6 nM
same,GI50,BT-474,3.1 ± 1.4 nM
same,IC70 (colony formation),MAXF 1322,48 nM
same,IC50,MAXF 1322; Homo sapiens,29 nM
same,"HSP70 staining intensity, recovery",HSP70,gradually returned to baseline over one week
same,time point of peak HSP70 staining intensity,HSP70,24 h
same,HSP70 staining intensity,HSP70; 6 hours after administration,strongly increased HSP70 staining
same,concentration required for significant reduction of protein AKT levels,[1],around 1 μM
same,phospho-AKT levels,[1]; 50 nM,decrease in the levels of phospho-AKT
same,total ERBB2 levels,[1]; 50 nM,decrease in total ERBB2 levels
same,plasma concentrations,[2]; [3],below levels of quantitation
same,tumor concentration,[2]; [3],2.22 nmol/g
same,Kp,"[2]; female, athymic, mouse, heart, read-out: tissue exposure over 48 hours relative to plasma",5
same,half-life,"[2]; female, athymic, mouse, heart, iv, heart, 30 mg/kg single i.v., read-out: T 1/2 elimination λ_z (converted)",5.6 h
same,AUC(0-t),"[2]; female, athymic, mouse, iv, plasma, 30 mg/kg single i.v., read-out: AUC(0-8)",7.3 µM·h
same,Cmax,"[2]; female, athymic, mouse, iv, plasma, 30 mg/kg single i.v., read-out: Cmax",14.1 ± 4.14 µM
same,Kp,"[2]; female, athymic, mouse, liver, read-out: tissue exposure over 48 hours relative to plasma",7
same,half-life,"[2]; female, athymic, mouse, liver, iv, liver, 30 mg/kg single i.v., read-out: T 1/2 elimination λ_z (converted)",7.7 h
same,half-life,"[2]; female, athymic, mouse, liver, lung, heart, muscle, iv, liver, lung, heart, muscle, read-out: terminal elimination half-life from non-tumor tissues",5.5 to 8 h
same,Kp,"[2]; female, athymic, mouse, lung, read-out: tissue exposure over 48 hours relative to plasma",10
same,half-life,"[2]; female, athymic, mouse, lung, iv, lung, 30 mg/kg single i.v., read-out: T 1/2 elimination λ_z (converted)",5.5 h
same,Kp,"[2]; female, athymic, mouse, muscle, read-out: tissue exposure over 48 hours relative to plasma",5
same,half-life,"[2]; female, athymic, mouse, muscle, iv, muscle, 30 mg/kg single i.v., read-out: T 1/2 elimination λ_z (converted)",8 h
same,half-life,"[2]; female, athymic, mouse, plasma, iv, based on the last three time points, read-out: apparent terminal elimination half-life in plasma (converted)",10 h
same,half-life,"[2]; female, athymic, mouse, plasma, iv, plasma, 30 mg/kg single i.v., read-out: T 1/2 elimination λ_z (converted)",10.3 h
same,Kp,"[2]; female, athymic, mouse, tumor, read-out: tumor exposure relative to plasma",~47
same,half-life,"[2]; female, athymic, mouse, tumor, iv, tumor, 30 mg/kg single i.v., read-out: T 1/2 elimination λ_z (converted)",30 h
same,half-life,"[2]; female, athymic, mouse, tumor, iv, tumor, read-out: terminal half-life in tumor",25 to 30 h
same,AUC(0-8),"[2]; heart, 30 mg/kg single i.v.",32 nmol·h/g
same,Cmax,"[2]; heart, 30 mg/kg single i.v.",36.86 ± 7.42 nmol/g
same,dose-normalized plasma exposure,[2]; i.v. 20 mg/kg,0.28 µmol·h/L
same,dose-normalized plasma exposure,[2]; i.v. 30 mg/kg,0.24 µmol·h/L
same,AUC(0-8),"[2]; liver, 30 mg/kg single i.v.",53 nmol·h/g
same,Cmax,"[2]; liver, 30 mg/kg single i.v.",30.94 ± 5.58 nmol/g
same,AUC(0-8),"[2]; lung, 30 mg/kg single i.v.",71 nmol·h/g
same,Cmax,"[2]; lung, 30 mg/kg single i.v.",48.48 ± 10.11 nmol/g
same,AUC(0-8),"[2]; muscle, 30 mg/kg single i.v.",35 nmol·h/g
same,Cmax,"[2]; muscle, 30 mg/kg single i.v.",27.45 ± 6.64 nmol/g
same,Cmax (highest concentration),[2]; tumor,16.3 nmol/g
same,tumor drug level at 48 hours as share of Cmax,[2]; tumor,approximately 13%
same,AUC(0-8),"[2]; tumor, 30 mg/kg single i.v.",345 nmol·h/g
same,Cmax,"[2]; tumor, 30 mg/kg single i.v.",16.36 ± 3.84 nmol/g
same,GI50,MDA-MB-157,126 ± 37 nM
same,GI50,BT20,4 ± 1.4 nM
same,IC70 (colony formation),MAXF 1384,477 nM
same,IC50,MAXF 1384; Homo sapiens,209 nM
